# Assay results from patent publication US20220142991A1, “METHODS AND COMPOSITIONS FOR TREATMENT OF L YSOSOMAL STORAGE DISORDER” (CHILDREN'S HOSPITAL MEDICAL CENTER, priority 2019, published 2022).
# Experiments:
# inflammatory mediators = assay: RT-qPCR of inflammatory mediator mRNA in midbrain tissue; format: in vivo, mouse
# Method: Vitner et al., (2012) Brain. 135 (Pt 6):1724-35; Dasgupta et al., (2015) Hum Mol Genet. 15; 24(24):7031-48. The highly activated microglia/and astrocyte are the main source of multiple inflammatory mediators in brain. […] The isolated mRNA was subjected to quantitative reverse transcription PCR (RT-qPCR) analysis using oligos directed toward inflammatory mediator genes of interest, including cytokine, chemokine, and inflammation-related receptors. Specifically, RT-qPCR analysis was performed to detect mRNA expression levels of the following genes: tumor necrosis factor (TNF)-alpha, interleukin (IL)-1-beta (IL-1β), IL-6, IL-17A, transforming growth factor beta (TGF-β), chemokine ligand (CCL) 5 (CCL5), CCL2, CCL22 chemokine (C-X-C motif) ligand 2 (CXCL2), intercellular adhesion molecule 1 (ICAM1), tumor necrosis factor receptor 1 (TNFR1), Cluster of Differentiation 86 (CD86), EGF-like module-containing mucin-like hormone receptor-like 1 (F4/80), component 5 (C5), and complement component 5a receptor 1 (C5AR1).
# 4L;C* mice [1] = assay: Fluoro-Jade C (FJC) staining for degenerating neurons in brain cryosections; settings: most brain regions, Day 55, vs buffer-treated 4L;C*
# Method: To visualize degenerative neurons in nGD mice, brains were harvested from well-perfused rapamycin treated 4L;C* mice, buffer-treated 4L;C* mice, and 4L normal, untreated mice at age of Day 55. Sagittal brain cryosections (10 μm) were mounted on gelatin-coated slides, air-dried, and subjected to FJC staining. The slides were first immersed in a solution containing 1% NaOH in 80% ethanol for 5 minutes. They were rinsed for 2 minutes in 70% ethanol and for 2 minutes in distilled water, then incubated in 0.06% potassium permanganate solution for 10 minutes. Following a water rinse for 2 minutes, slides were transferred to the FJC staining solution and stained for 10 minutes. The proper dilution was accomplished by first making a 0.01% stock solution of FJC dye (Chemicon, Temecula, Calif., USA) in distilled water and then adding 1 ml of the stock solution to 99 ml of 0.1% acetic acid. Slides were washed three times each for 1 minute and then air-dried on a slide warmer at 50° C. for 30 minutes. After clearing in xylene and coverslipping, sections were examined under an epifluorescence microscope.
# 4L;C* mice [2] = assay: Lifespan (Kaplan-Meier survival) in 4L;C* nGD mouse model; format: in vivo; settings: rapamycin 6 mg/kg i.p. every 2 days from 2 weeks of age, untreated 59 days, buffer 60 days
# Description: The 4L;C* mouse is a transgenic animal model that is viable and mimics neurological deficits analogous to subacute neuronopathic Gaucher disease (nGD). The 4L;C* mice used in this and other examples disclosed herein were generated as described in Sun et al., Hum Mol Genet. 2010 Mar. 15; 19(6): 1088-1097, the disclosure of which is incorporated herein in its entirety. In brief, saposin C deficient (C^−/−) mice were generated by introducing a Cys→Pro substitution in the saposin C region of prosaposin. […] Saposin C is an essential activator for GCase. GCase V394L (4L/4L) mice were generated by germ-line transmission of a missense point mutation in the GCase (GBA) locus encoding for V394L. Next, saposin C^−/− mice were cross-bred with point mutated GCase V394L homozygotes (4L/4L) to generate 4L/wt;C^−/+ mice. 4L;C* mice (4L/4L;C^−/−) were produced by intercrossing 4L/4L;C^+/− with 4L/4L;C^+/−. The strain background of 4L;C* was originally C57BL/6J/129SvEV and backcrossed into pure C57BL/6J strain for more than 12 generations.
# 4L;C* mice [3] = assay: CD68 immunohistochemistry for activated microglia/macrophage in brain and spinal cord; format: in vivo, mouse
# Description: CD68, a classic marker of activated microglia/macrophage (Korzhevskii et al., (2016) Neurosci Behav Physi 46, 284-290), was used to determine CNS inflammation by immunohistochemistry staining. […] FIG. 6A.
# 4L;C* mice [4] = assay: GFAP immunohistochemistry for activated astrocytes in brain; settings: middle brain, brain stem, Day 55
# Method: To visualize reactive astrocytes in nGD mice, immunohistochemistry (IHC) was performed. In brief, brains were harvested from well-perfused rapamycin treated 4L;C* mice, buffer-treated 4L;C* mice, and 4L normal mice at age of Day 55. Sagittal brain cryosections (8 um) were mounted on gelatin-coated slides, air-dried, and subjected to IHC staining using the BenchMark XT IHC/ISH staining module. For GFAP staining, the sections were incubated in buffer solution containing 0.1% trypsin for 5 minutes at room temperature. For morphometric analysis, hematoxylin-eosin co-staining was performed according to standard protocols. Endogenous peroxidase activity was quenched by incubation of the sections for 5 minutes with 3% hydrogen peroxide. Sections were incubated overnight at 4° C. in primary antibodies for GFAP rabbit polyclonal antibody. Staining was detected using biotin-labeled anti-rabbit secondary antibodies and streptavidin conjugated to horseradish peroxidase. Sections were examined with microscope using computer-assisted image analysis software.
# 4L;C* nBMT mice = assay: FACS analysis of donor-derived GFP+ migrated cells in brain after nBMT; format: in vivo, mouse; settings: 55 days of age
# Method: Briefly, mice that express enhanced green fluorescent protein (GFP; C57BL/6 GFP/CD45.1) were used as bone marrow donors. Low-density bone marrow (LDBM) cells were harvested by flushing the hind-leg bones with Dulbecco's modified Eagle's medium (DMEM) containing 2% fetal calf serum (FCS) and 50 U penicillin/0.05 mg/mL streptomycin using a 23 G needle. The cells were passed through a 100 μm cell strainer. LDBM cells were isolated after density gradient centrifugation with Histopaque-1083. Viable cells were counted with trypan blue dye and resuspended in PBS containing 30 U/mL heparin. The recipient pups (˜3 days old of 4L;C or 4L;norm) were subjected to myelosuppressive conditioning with the chemotherapeutic agent busulfan by intraperitoneal injection at 20 mg/kg. Twenty-four hours later, the 4L;C and 4L;norm recipient pups then received about 1×10^6 GPF+ donor cells via injection into super-facial temple vein (nBMT). 4L;C nBMT mice were then given an i.p. injection of rapamycin or buffer every other days starting at 21 days of age. […] Multicolor FACS analysis was conducted as described above to analyze contribution of GFP+ migrated cells in microglia and subpopulations of leukocytes. FIG. 11A. The frequency of donor-derived GFP+ cells among different leukocyte populations in brain parenchyma was quantified, including CD45^+ cells, microglia, myeloid, lymphoid, macrophage and T cells. Table 1. In busulfan-conditioned mice, engraftment of GFP+ microglial cells was increased in 4L;C* mice compared to 4L normal mice, regardless of treatment with buffer or rapamycin. Table 1. […] FIG. 11B.
# 4L;C* mice [5] = assay: Relative bodyweight in 4L;C* nGD mouse model; settings: 6 mg/kg i.p. every 2 days, bodyweight normalized to age 30 days, untreated/buffer Day 52
# Method: To assess the effect of rapamycin on nGD, rapamycin (6 mg/kg) was administered to 4L;C* mice by intraperitoneal (i.p.) injection every 2 days starting from 2-weeks of age (4L;C* rapa). […] The lifespan of the mice was monitored daily from 40 days of age until 90 days of age or until death. The Kaplan-Meier method was used to estimate survival probability and a log-rank test was used to compare the Kaplan-Meier survival curves of the four different experimental groups.
# Additionally, the bodyweight the mice was measured daily from 20 days of age until 90 days of age or until death. Relative bodyweight curves were normalized by weight value of each animal at the age of 30 days.
# 4L;C* mice [6] = assay: FACS analysis of microglia and leukocyte populations in brain; format: in vivo, mouse; settings: brain hemispheres
# Description: Brain inflammation invariably results in a reshaping of the blood-borne leukocyte populations inhabiting the CNS. To elucidate the changes of resident immune cells (i.e., microglial cells) and infiltrated leukocytes in nGD brain and the effect rapamycin has on activation of immune cells and infiltration, flow cytometry was used to analyze different leukocyte populations in brain parenchyma, including CD45^+ cells, microglia, myeloid, lymphoid, macrophage and T cells. […] The hemispheres of the brain were separated, minced, and digested by incubation with […] collagenase IV for 30 min at 37° C. The resulting cell suspensions were then fractionated by density gradient separation using 25% Percoll® gradients at 520×g for 20 minutes. […] After removing myelin and top suspension layer, pelleted cells collected were then subjected to multicolor (5) fluorescence-activated cell sorting analysis (FACS) by co-staining with multiple antibodies that conjugated with various fluorochromes to identify microglia and subpopulations of leukocytes. FIG. 10A. […] FIG. 10B. […] FIG. 10B. […] FIG. 10B.
# The frequency of microglia (CD45^intermediateCD11b^high) was increased in buffer-treated 4L;C* mice (1.9 fold) and decreased in rapamycin-treated 4L;C* mice (1.3-fold), which indicates reduced microgliosis in nGD brain. FIG. 10B. […] FIGS. 10C and 10D.
structure (smiles),measurement,setting,value
CO[C@H]1C[C@@H]2CC[C@@H](C)[C@@](O)(O2)C(=O)C(=O)N2CCCC[C@H]2C(=O)O[C@H]([C@H](C)C[C@@H]2CC[C@@H](O)[C@H](OC)C2)CC(=O)[C@H](C)/C=C(\C)[C@@H](O)[C@@H](OC)C(=O)[C@H](C)C[C@H](C)/C=C/C=C/C=C/1C [rapamycin],CCL2 mRNA expression,"inflammatory mediators; Day 55, buffer-treated 16.6-fold",9 fold
same,CCL5 mRNA expression,"inflammatory mediators; Day 55, compared to normal littermates, buffer-treated 47-fold",23 fold
same,reduction of degenerating neuronal signals (FJC),4L;C* mice [1],29-45%
same,median survival,4L;C* mice [2],82 days
same,reduction of CD68+ area,"4L;C* mice [3]; all brain regions except cerebellar DCN, Day 55",53-62%
same,reduction of CD68 signals,4L;C* mice [3]; spinal cord,56%
same,decrease of GFAP signal,4L;C* mice [4],36-74%
same,Frequency of GFP+ cells among CD45+,4L;C* nBMT mice,2.87
same,Frequency of GFP+ cells among Lymphoid,4L;C* nBMT mice,29.3
same,Frequency of GFP+ cells among Macrophage,4L;C* nBMT mice,19.5
same,Frequency of GFP+ cells among Microglia,4L;C* nBMT mice,1.56
same,Frequency of GFP+ cells among Myeloid,4L;C* nBMT mice,17.4
same,Frequency of GFP+ cells among T Cell,4L;C* nBMT mice,37.6
same,starting age for bodyweight to show significant difference from normal controls (4L;norm),4L;C* mice [5],75 days
same,frequency of microglia (CD45intermediate CD11bhigh),4L;C* mice [6]; buffer-treated 1.9 fold,1.3 fold
same,percentage of total CD45+ cells in brain,4L;C* mice [6]; buffer-treated 2.2-,1.4 fold
